Source: US12629446B2, “Vascular embolic system” (3-D Matrix, Ltd., priority 2012, dated 2026)

Design: species or system Yorkshire cross swine
Settings: in vivo
Method: PuraMatrix™, a peptide solution comprising Ac-RADARADARADARADA-NH2 (Ac-Arg-Ala-Asp-Ala-Arg-Ala-Asp-Ala-Arg-Ala-Asp-Ala-Arg-Ala-Asp-Ala-NH2) (SEQ ID NO: 58) in water was used as an embolic agent in a porcine model through angiography, gross necropsy assessment, and histopathology assessment. One female Yorkshire cross swine was tested. The weight of the swine at the time of testing was 46.5 kg. Feed and water were provided per standard operating procedures. There were no contaminants in the food or water that were expected to interfere with the conduct or results of the study. The swine was acquired from a test facility approved animal supplier. The Swine participated in an incoming physical exam, and after a period of acclimation was again examined. The swine was fasted a minimum of 12 hours prior to the procedures. The animals were sedated and anesthetized by an intramuscular or subcutaneous injection of Telazol (2-10 mg/kg) and Xylazine (0.5=5.0 mg/kg). Propofol (to effect) was given to aid in sedation. An endotracheal tube was used to ensure proper ventilation and the animals were maintained under general anesthesia with inhalant isofluorante (0.1 to 5.0%). Heparin (50-300 units/kg, IV) was administered throughout the procedure.
On the day of testing, the swine was 2 months, 25 days old. The swine was sedated and prepared for surgery. […]

Substance: Ac-RADARADARADARADA-NH2 [PuraMatrix™]
- adverse events throughout the testing: no adverse events
